Where two headings read alike, the source gives them in different places.
Assays:
[1] = test system: murine FRDA cell model; settings: cited from earlier work
[2] = test system: human fibroblast FRDA model; settings: cited from earlier work
[3] = test system: yeast model of FRDA; settings: cited from earlier work
[4] = test system: murine model of FRDA; settings: Abeti et al. 2016; cited from earlier work
[5] = test system: H9C2 myoblasts; settings: other oxidative stress paradigms; cited from earlier work
[6] = in vivo; design: species or system mice and rats; settings: rat
Description: Single- and repeat-dose studies are conducted in mice and rats using both oral gavage and dietary administration of substituted compounds as described herein (e.g., D-PUFA and ester thereof) for up to 26 weeks. […] The NOAELs established in the 8- and 26-week studies correspond to an average consumption of the substituted compounds studied in the amount of ˜362 and ˜452 mg/kg, respectively. The high dose diets in these studies contained no natural LA. […] This is consistent with the substituted compounds as described herein (e.g., D-PUFA and ester thereof) (di-deutero linoleic acid) being, for dietary purposes, equivalent to and biologically interchangeable with normal dietary LA as a sole source of LA by the rats in this study. […] The body weights, organ weights, percent of each organ composed of PUFAs, distribution of PUFA species in each tissue, and the PUFA composition of red blood cells are not changed versus controls.

[7] = test system: patient with Infantile Neuroaxonal Dystrophy (INAD), mutation in both copies of the PLA2G6 gene; type: in vivo, human
From the text: (§1) A study in the fatal neurodegenerative disease, Infantile Neuroaxonal Dystrophy (INAD) was initiated in March 2017. At study onset, the subject with a genetic mutation in both copies of the PLA2G6 gene, was mostly unresponsive to stimuli and unable to perform virtually any activity. All normal development milestones previously acquired had been lost. Prognosis was that a feeding tube would be required in the near term progression of the disease. The patient received dosing of a D-PUFA (11,11-D2-linoleic acid), 1.8 g twice a day, for a six month trial under an Expanded Access (Compassionate Use) protocol. As they were unable to swallow a pill, soft gels containing the D-PUFA were placed in warm liquid (water or milk), pierced with a fork, and the active oil pressed into the liquid, which was then soaked into food or a cookie, and administered.
FIG. 1 summarizes the baseline and one year treatment status of the patient (degree of impairment: (0) for severely impaired, (+1) for moderately impaired, (+2) for mildly impaired or no impairment).
After 2 months on drug, […] regained sufficient bulbar function to terminate syringe feeding of liquids and returned to drinking from a child's sippy cup.
(§2) One month and three month plasma level of deuterated polyunsaturated fatty acid was at steady state at approximately 44% total (dietary plus modified) linoleic acid, indicating excellent uptake and absorption of a therapeutic level of drug (>˜10-15%). Deuterated arachidonic acid was observed as present in the plasma at 0.6% and 3.0% of total arachidonic acid at month one and three months; respectively.
INAD is a strictly progressive disease, only worsening with time. Stabilization of regressions and recovery of lost milestones indicated effectiveness of the test treatment in a single, severely affected INAD patient.

[8] = female, human, in vivo
From the text: as §1, §2

[9] = human, in vivo
Description: Design/Methods: 11,11-D2-linoleic acid ethyl ester was administered to the patient at 2.7 g (BID) and periodic repeat assessments including baseline measurement of PK, activities of daily living (ADL), 25 foot walk time (25FWT), and 6 minute walk distance (6MWD) were made. In particular, ADLs were measured individually on a scale of 0-5 across a 12 element panel representing speech, strength, coordination, etc.

[10] = test system: patient with late onset Tay-Sachs disease (LOTS); experiment: Case study in a single patient with late onset Tay-Sachs disease: ADL, 25FWT, 6MWD, tolerability; type: in vivo, human; settings: 2.7 g BID; for Composite ADL Score: baseline 0; for 25FWT: baseline 12.7
From the text: In this example, a case study of using 11,11-D2-linoleic acid ethyl ester to treat a single patient with late onset Tay-Sachs disease (LOTS) and the study results was reported.

[2H]C([2H])(/C=C\CC)/C=C\C([2H])([2H])/C=C\CCCCCCCC(=O)O [D4-ALA, 11,11,14,14-Tetradeutero-cis,cis,cis-9,12,15-Octadecatrienoic acid]
cell viability [1]: protect cells from loss of viability | cell viability [2]: rescue cells from loss of viability | lipid peroxidation [3]: decreased lipid peroxidation | lipid peroxidation [4]: prevent lipid peroxidation | protection against oxidative stress [5]: protective against oxidative stress

[2H]C([2H])(/C=C\CCCCC)/C=C\CCCCCCCC(=O)O [11,11-D2-linoleic acid, 11,11-Dideutero-cis,cis-9,12-Octadecadienoic acid]
NOAEL at 8 weeks [6]: ~362 mg/kg | NOAEL at 26 weeks [6]: ~452 mg/kg | progression of disease, clinical examination ([7]; 3 months, since start of trial, n=1): no progression of disease | qualitative measures in videotaped sessions (eye tracking, responsiveness, head control, lifting, reaching and grasping) ([7]; after 6 months): improved in qualitative measures | drug related adverse events ([7]; human, in vivo): no drug related adverse events of any sort reported | safety and tolerability ([7]; human, in vivo): safe and well-tolerated | ability to grasp ([7]; parents' report at 4 months): regained ability to grasp spoon and hold | constipation ([7]; parents' report at 4 months): constipation resolved | eating ([7]; parents' report at 4 months): can eat (chew and swallow) food such as banana | responsiveness to verbal requests ([7]; parents' report at 4 months): newly responsive to verbal requests during therapy | salivation down ([7]; parents' report at 4 months): 99% | muscle strength ([7]; parents' report at 4 months, grasping and lifting rattle): better muscle strength | ability to swallow ([7]; parents' report at 4 months, vs. syringe feeding): regained ability to swallow using sipper cup | overall patient status ([7]; starting within a month of dosing until one year): the patient has improved | deuterated arachidonic acid in plasma, of total arachidonic acid ([8]; 1 month): 0.6% | deuterated arachidonic acid in plasma, of total arachidonic acid ([8]; 3 months): 3.0% | time to significant plasma levels and red blood cell (RBC) membrane incorporation [9]: ≤ 1 month | cell viability [1]: protect cells from loss of viability | cell viability [2]: rescue cells from loss of viability

[2H]C([2H])(/C=C\CCCCC)/C=C\CCCCCCCC(=O)OCC [11,11-D2-linoleic acid ethyl ester]
disease progression [10]: Early efficacy signs of inhibition of disease progression and some regression were seen | tolerability / toxicities [10]: well tolerated with no toxicities reported | # of ADLs improved ([10]; 30 d): 6 | Composite ADL Score ([10]; 30 d, 12 element panel, scale 0-5): +6 | 25FWT ([10]; 30 d): 12.1 s | # of ADLs improved ([10]; 120 d): 8 | Composite ADL Score ([10]; 120 d): +9 | 25FWT ([10]; 120 d): 11.2 s | D-LA(%) D-LA + H-LA Plasma [9]: 36% | D-LA(%) D-LA + H-LA RBC [9]: 28%

— US20210252173A1, “STABILIZED POLYUNSATURATED COMPOUNDS AND USES THEREOF” (RETROTOPE, INC., priority 2018, published 2021)
